Source: patent US7223759B2, “Antibacterial 3,5-diaminopiperidine-substituted aromatic and heteroaromatic compounds” (Anadys Pharmaceuticals, Inc., priority 2003, dated 2007)

These compounds were tested on Escherichia coli (ATCC25922) or Staphylococcus aureus (ATCC25923) (assay: Antibacterial MIC, microdilution method in Mueller-Hinton medium). Conditions: Escherichia coli, 18 h, MIC in E. coli or S. aureus; two-fold serial dilutions 64 to 0.5 μg/ml in duplicate; 18 hours of incubation at 35° C.; read-out: Potency (MIC).
Format: cell-based
Summary of the method: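 Read after 18 h incubation at 35° C, MIC is the lowest compound level that blocked growth. Compounds were tested in duplicate over 64–0.5 μg/ml two-fold dilutions using Mueller-Hinton microdilution per NCCLS standard.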

Compared with `N[C@@H]1C[C@H](N)CN(c2nc(NCCN3CCNC3=O)nc(Nc3ccc(NC(=O)c4ccc(Cl)cc4)c(O)c3)n2)C1` [4-Chloro-N-{4-[4-((3S,5R)-3,5-diamino-piperidin-1-yl)-6-[2-(2-oxo-imidazolidin-1-yl)-ethylamino]-[1,3,5]triazin-2-ylamino}-2-hydroxy-phenyl)-benzamide], `CC(=O)N1CCN(c2nc(Nc3ccc(S(=O)(=O)Nc4ccc5cn[nH]c5c4)cc3)nc(N3C[C@H](N)C[C@H](N)C3)n2)CC1` [4-[4-(4-Acetyl-piperazin-1-yl)-6-((3R,5S)-3,5-diamino-piperidin-1-yl)-[1,3,5]triazin-2-ylamino]-N-(1H-indazol-6-yl)-benzenesulfonamide] is higher in MIC: < 64 µg/mL for the first, > 64 µg/mL for the second.

Going from `CCOC(=O)c1ccc(Nc2nc(N3C[C@H](N)C[C@H](N)C3)nc(N3C[C@H](N)C[C@H](N)C3)n2)cc1` [4-[4,6-Bis-((3R,5S)-3,5-diamino-piperidin-1-yl)-[1,3,5]triazin-2-ylamino]-benzoic acid ethyl ester] to `Cl.N[C@@H]1C[C@H](N)CN(c2nc(N3C[C@H](N)C[C@H](N)C3)nc(N3CCc4cc(Br)ccc43)n2)C1` [4-[4-(4,6-Bis-((3R,5S)-3,5-diamino-piperidin-1-yl)-[1,3,5]triazin-2-yl)-piperiazin-1-yl]-phenol], the MIC falls from > 64 µg/mL to < 64 µg/mL.

Going from `Cc1cc(Br)ccc1Nc1nc(N2CCCCC2)nc(N2CCCCC2)n1.Cl` [4-[4,6-Bis-((3R,5S)-3,5-diamino-piperidin-1-yl)-[1,3,5]triazin-2-ylammino]-benzoic acid methyl ester] to `Cl.O=C(Oc1ccccc1)c1ccc(Nc2nc(N3CCCCC3)nc(N3CCCC3)n2)cc1O` [4-[4-((3S,5R)-3,5-Diamino-piperidin-1-yl)-6-((3R,4S)-3,4-dihydroxy-pyrrolidin-1-yl)-[1,3,5]triazin-2-ylamino]-2-hydrooxy-benzoic acidphenyl ester], the MIC falls from > 64 µg/mL to < 64 µg/mL.

`COc1nc(Nc2ccc(C(=O)Oc3ccccc3)c(O)c2)nc(N2CCCCC2)n1.Cl` [4-[4-((3R,5S)-3,5-Diamino-piperidin-1-yl)-6-methoxy-[1,3,5]triazin-2-ylamino]-2-hydroxy-benzoic acidphenylester] and `O=S(=O)(Nc1ccc2cn[nH]c2c1)c1ccc(Nc2nc(N3CCCCC3)nc(N3CCN(c4ccncc4)CC3)n2)cc1` [4-[4-((3S,5R)-3,5-DSiamino-piperidin-1-yl)-6-(4-pyridin-4-yl-piperazin-1-yl)-[1,3,5]triazin-2-ylamino]-N-(1H-indazol-6-yl)-benzenesulfonamide] cannot be ordered by MIC: < 16 µg/mL for the first, < 64 µg/mL for the second.

With `N[C@@H]1C[C@H](N)CN(c2nc(Nc3ccc(S(=O)(=O)Nc4ccc5cn[nH]c5c4)cc3)nc(N3CCC(N4CCCC4)CC3)n2)C1` [4-[4-((3S,5R)-3,5-Diamino-piperidin-1-yl)-6-(4-pyrrolidin-1-yl-piperidin-1-yl)-[1,3,5]triazin-2-ylamino]-N-(1H-indazol-6-yl)-benzenesulfonamide] the MIC was > 64 µg/mL.

Same assay, conditions: Escherichia coli, 18 h, read-out: Potency (MIC)

`N[C@@H]1C[C@H](N)CN(c2nc(Nc3ccc(NC(=O)c4ccc(Cl)cc4)c(O)c3)nc(N3CCC(N4CCCC4)CC3)n2)C1` [4-Chloro-N-{4-[4-((3S,5R)-3,5-diamino-piperidin-1-yl)-6-(4-pyrrolidin-1-yl-piperidin-1-yl)-[1,3,5]triazin-2-ylamino]-2-hydroxy-phenyl}-benzamide] and `N[C@@H]1C[C@H](N)CN(c2nc(Nc3ccc(NC(=O)c4ccc(Cl)cc4)c(O)c3)nc(N3CCNCC3)n2)C1` [4-Chloro-N-{4-[4-((3S,5R)-3,5-diamino-piperidin-1-yl)-6-piperazin-1-yl-[1,3,5]triazin-2-ylamino]-2-hydroxy-phenyl}-benzamide] cannot be ordered by MIC: < 64 µg/mL for the first, < 16 µg/mL for the second.

`N[C@@H]1C[C@H](N)CN(c2nc(Nc3ccc(NC(=O)c4ccc(Cl)cc4)c(O)c3)nc(N3C[C@H](O)C[C@@H](O)C3)n2)C1` [4-Chloro-N-{4-[4-((3S,5R)-3,5-diamino-piperidin-1-yl)-6-((3R,5R)-3,5-dihydroxy-piperidin-1-yl)-[1,3,5]triazin-2-ylamino]-2-hydroxy-phenyl}-benzamide] and `N[C@@H]1C[C@H](N)CN(c2nc(Nc3ccc(NC(=O)c4ccc(Cl)cc4)c(O)c3)nc(NC3CCCNC3)n2)C1` (stereo partly drawn) [4-Chloro-N-{4-[4-((3S,5R)-3,5-diamino-piperidin-1-yl)-6-(piperidin-3-ylamino)-[1,3,5]triazin-2-ylamino]-2-hydroxy-phenyl}-benzamide] cannot be ordered by MIC: < 64 µg/mL for the first, < 16 µg/mL for the second.

`NC[C@@H]1C[C@H](N)CN1c1nc(Nc2ccc(C(=O)Oc3ccccc3)c(O)c2)nc(N2C[C@H](N)C[C@H](N)C2)n1` [4-[4-((2S,4S)-4-Amino-2-aminomethyl-pyrrolidin-1-yl)-6-((3R,5S)-3,5-diamino-piperidin-1-yl)-[1,3,5]triazin-2-ylamino]-2-hydroxy-benzoic acid phenyl ester] and `NC[C@@H]1C[C@H](CN)CN(c2nc(Nc3ccc(C(=O)Oc4ccccc4)c(O)c3)nc(N3C[C@H](N)C[C@H](N)C3)n2)C1` [4-[4-((3R,5S)-3,5-Bis-(aminomethyl)-piperidin-1-yl)-6-((3R,5S)-3,5-diamino-piperidin-1-yl)-[1,3,5]triazin-2-ylamino]-2-hydroxy-benzoic acid phenyl ester] cannot be ordered by MIC: < 16 µg/mL for the first, < 64 µg/mL for the second.

`NC[C@@H]1C[C@H](N)CN1c1nc(Nc2ccc(S(=O)(=O)Nc3ccc4cn[nH]c4c3)cc2)nc(N2C[C@H](N)C[C@H](N)C2)n1` [4-[4-((2S,4S)-4-Amino-2-aminomethyl-pyrrolidin-1-yl)-6-((3R,5S)-3,5-diamino-piperidin-1-yl)-[1,3,5]triazin-2-ylamino]-N-(1H-indazol-6-yl)-benzenesulfonamide] and `N[C@@H]1C[C@H](N)CN(c2nc(Nc3ccc(S(=O)(=O)Nc4ccc5cn[nH]c5c4)cc3)nc(N3C[C@@H](N)C[C@H]3CO)n2)C1` [4-[4-((2S,4S)-4-Amino-2-hydroxymethyl-pyrrolidin-1-yl)-6-((3R,5S)-3,5-diamino-piperidin-1-yl)-[1,3,5]triazin-2-ylamino]-N-(1H-indazol-6-yl)-benzenesulfonamide] cannot be ordered by MIC: > 64 µg/mL for the first, > 64 µg/mL for the second.

`NC(=O)c1ccc(Nc2nc(N3C[C@H](N)C[C@H](N)C3)nc(N3C[C@@H](N)C[C@H]3CO)n2)cc1O` [4-[4-((2S,4S)-4-Amino-2-hydroxymethyl-pyrrolidin-1-yl)-6-((3R,5S)-3,5-diamino-piperidin-1-yl)-[1,3,5]triazin-2-ylamino]-2-hydroxy-benzamide] and `N[C@@H]1C[C@H](N)CN(c2nc(Nc3ccc(S(=O)(=O)Nc4ccc5cn[nH]c5c4)cc3)nc(N3C[C@@H](N)[C@@H](N)C3)n2)C1` [4-[4-((3R,5S)-3,5-Diamino-piperidin-1-yl)-6-((3R,4S)-3,4-diamino-pyrrolidin-1-yl)-[1,3,5]triazin-2-ylamino]-N-(1H-indazol-6-yl)-benzenesulfonamide] cannot be ordered by MIC: > 64 µg/mL for the first, > 64 µg/mL for the second.

`NC[C@@H]1C[C@H](CN)CN(c2nc(Nc3ccc(S(=O)(=O)Nc4ccc5cn[nH]c5c4)cc3)nc(N3C[C@H](N)C[C@H](N)C3)n2)C1` [4-[4-((3R,5S)-3,5-Bis-(aminomethyl)-piperidin-1-yl)-6-((3R,5S)-3,5-diamino-piperidin-1-yl)-[1,3,5]triazin-2-ylamino]-N-(1H-indazol-6-yl)-benzenesulfonamide] and `COc1nc(Nc2ccc(S(=O)(=O)Nc3ccc4cn[nH]c4c3)cc2)nc(N2C[C@H](N)C[C@H](N)C2)n1` [4-[4-((3R,5S)-3,5-Diamino-piperidin-1-yl)-6-methoxy-[1,3,5]triazin-2-ylamino]-N-(1H-indazol-6-yl)-benzenesulfonamide] cannot be ordered by MIC: > 64 µg/mL for the first, > 64 µg/mL for the second.

In the case of `N[C@@H]1C[C@H](N)CN(c2nc(NCCCn3ccnc3)nc(Nc3ccc(S(=O)(=O)Nc4ccc5cn[nH]c5c4)cc3)n2)C1` [4-[4-((3S,5R)-3,5-Diamino-piperidin-1-yl)-6-(3-imidazol-1-yl-propylamino)-[1,3,5]triazin-2-ylamino]-N-(1H-indazol-6-yl)-benzenesulfonamide], the MIC is reported as > 64 µg/mL.

Same assay, conditions: MIC in E. coli or S. aureus; two-fold serial dilutions 64 to 0.5 μg/ml in duplicate; 18 hours of incubation at 35° C.

With `NC[C@H]1[C@@H](O)CCN1c1nc(Nc2ccc(C(=O)Oc3ccccc3)c(O)c2)nc(N2C[C@H](N)C[C@H](N)C2)n1` [4-[4-((2S,3S)-2-Aminomethyl-3-hydroxy-pyrrolidin-1-yl)-6-((3R,5S)-3,5-diamino-piperidin-1-yl)-[1,3,5]triazin-2-ylamino]-2-hydroxy-benzoic acidphenylester] the “Potency (MIC)” value was “− (− means MIC>64 μg/ml in E. coli or S. aureus)”.
`NC[C@@H]1C[C@@H](O)CN1c1nc(Nc2ccc(S(=O)(=O)Nc3ccc4cn[nH]c4c3)cc2)nc(N2C[C@H](N)C[C@H](N)C2)n1` [4-[4-((2S,4R)-2-Aminomethyl-4-hydroxy-pyrrolidin-1-yl)-6-((3R,5S)-3,5-diamino-piperidin-1-yl)-[1,3,56]triazin-2-ylamino]-N-(1H-indazol-6-yl)-benzenesulfonamide] was tested, and the “Potency (MIC)” value was “− (− means MIC>64 μg/ml in E. coli or S. aureus)”.
With `NC[C@@H]1CN(c2nc(Nc3ccc(C(=O)Oc4ccccc4)c(O)c3)nc(N3C[C@H](N)C[C@H](N)C3)n2)CC[C@@H]1O` [4-[4-((3R,4S)-3-Aminomethyl-4-hydroxy-piperidin-1-yl)-6-((3R,5S)-3,5-diamino-piperidin-1-yl)-[1,3,5]triazin-2-ylamino]-2-hydroxy-benzoic acidphenylester] the “Potency (MIC)” value was “− (− means MIC>64 μg/ml in E. coli or S. aureus)”.
With `NC[C@@H]1CN(c2nc(Nc3ccc(S(=O)(=O)Nc4ccc5cn[nH]c5c4)cc3)nc(N3C[C@H](N)C[C@H](N)C3)n2)CC[C@@H]1O` [4-[4-((3R,4S)-3-Aminomethyl-4-hydroxy-piperidin-1-yl)-6-((3RE,5S)-3,5-diamino-piperidin-1-yl)-[1,3,5]triazin-2-ylamino]-N-(1H-indazol-6-yl)-benzenesulfonamide] the “Potency (MIC)” value was “− (− means MIC>64 μg/ml in E. coli or S. aureus)”.
